The text below walks through data of ChEMBL document CHEMBL1201862, “PubChem BioAssay data set” (2004).

For orientation: IC50 means the point on the concentration scale where inhibition reaches its midpoint.

One test is described as follows: cells. It is filed as functional.
The nature of test [1]: HepG2 cell cytotoxicity, dose response, cytotoxicity control for non-replicating M. tuberculosis project (AID 489018). It is filed as functional. Particulars: Mycobacterium tuberculosis.
A short description of test [2]: THP-1 cell cytotoxicity, dose response, cytotoxicity control for non-replicating M. tuberculosis project (AID 489025). It is filed as functional.
The nature of test [3]: Vero E6 cell cytotoxicity, dose response, cytotoxicity control for non-replicating M. tuberculosis project, secondary assay (AID 492998). It is filed as functional, VeroE6. Particulars: Vero C1008.
The nature of test [4]: microbe, parasite or virus in culture. It is filed as functional. Particulars: Mycobacterium tuberculosis.
A further test addresses Bcl-2-like protein 10 (Homo sapiens, UniProt Q9HD36). Nature of the test: Bcl-B/TR3 peptide binding disruption – biochemical, fluorescence polarization, FITC-TR3 peptide, selectivity assay for Bfl-1 inhibitor project, primary screen (AID 748).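 Note: fluorescence polarization from a fluorescein-labelled TR3 peptide binding purified Bcl-B.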 A general note: In fluorescence polarisation assays a small probe gives low polarisation when free and higher when bound to something large.

For test [5], the target named is T1, Corticotropin-releasing factor receptor 2/Corticotropin-releasing factor-binding protein (Homo sapiens, UniProt P24387+Q13324).
T1 sequence (Q13324 whole entry): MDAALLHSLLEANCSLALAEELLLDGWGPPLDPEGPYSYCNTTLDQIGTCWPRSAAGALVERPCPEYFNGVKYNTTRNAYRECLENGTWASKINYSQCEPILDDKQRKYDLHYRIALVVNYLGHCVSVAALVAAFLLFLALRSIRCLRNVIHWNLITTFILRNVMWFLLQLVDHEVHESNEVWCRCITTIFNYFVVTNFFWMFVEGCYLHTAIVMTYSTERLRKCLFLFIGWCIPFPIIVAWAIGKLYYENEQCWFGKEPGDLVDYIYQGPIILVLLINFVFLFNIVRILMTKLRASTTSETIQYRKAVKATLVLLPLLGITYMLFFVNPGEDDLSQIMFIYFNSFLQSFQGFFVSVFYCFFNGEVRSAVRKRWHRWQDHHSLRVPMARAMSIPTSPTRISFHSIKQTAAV
T1 sequence (P24387 whole entry): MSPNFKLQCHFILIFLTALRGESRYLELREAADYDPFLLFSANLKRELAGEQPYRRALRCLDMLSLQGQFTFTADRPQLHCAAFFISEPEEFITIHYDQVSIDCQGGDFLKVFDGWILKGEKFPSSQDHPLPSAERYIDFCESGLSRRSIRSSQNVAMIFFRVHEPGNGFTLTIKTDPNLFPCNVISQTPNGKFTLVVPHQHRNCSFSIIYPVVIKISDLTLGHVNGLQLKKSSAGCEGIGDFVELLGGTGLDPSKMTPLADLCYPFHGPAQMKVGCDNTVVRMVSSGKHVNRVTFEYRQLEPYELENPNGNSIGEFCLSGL
Nature of the test: activators of CRF receptor 2 with binding protein – uHTS hits, confirmation (AID 602473). It is filed as functional. The conditions noted are these: read-out: EC50_Mean.

The target of test [6] is T2, RNA-binding protein pos-1 (Caenorhabditis elegans, UniProt G5EF15).
T2 sequence (G5EF15 whole entry): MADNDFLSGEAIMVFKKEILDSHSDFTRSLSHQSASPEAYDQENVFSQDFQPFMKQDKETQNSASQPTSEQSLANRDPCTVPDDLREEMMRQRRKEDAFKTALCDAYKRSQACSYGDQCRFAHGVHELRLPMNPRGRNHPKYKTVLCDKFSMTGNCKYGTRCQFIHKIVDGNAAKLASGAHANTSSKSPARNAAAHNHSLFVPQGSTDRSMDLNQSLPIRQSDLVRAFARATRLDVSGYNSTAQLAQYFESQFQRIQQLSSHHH
The test is described as follows: disruptors of C. elegans POS-1 RNA interaction – biochemical, fluorescence polarization, dose response (AID 1964).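 Note: purified POS-1 fused to maltose binding protein made in E. coli; potency of compounds blocking POS-1 binding to fluorescent RNA.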

Test [7] concerns the target Intestinal-type alkaline phosphatase (Homo sapiens, UniProt P09923). The test is described as follows: Dose Response confirmation of uHTS hits from a small molecule inhibitors of human intestinal alkaline phosphatase via a luminescent assay. [Related pubchem assays (depositor defined):AID2544, AID2574]. It is filed as functional.
The next test has as its target T3, Caspase-3 (Homo sapiens, UniProt P42574).
T3 sequence (P42574 whole entry): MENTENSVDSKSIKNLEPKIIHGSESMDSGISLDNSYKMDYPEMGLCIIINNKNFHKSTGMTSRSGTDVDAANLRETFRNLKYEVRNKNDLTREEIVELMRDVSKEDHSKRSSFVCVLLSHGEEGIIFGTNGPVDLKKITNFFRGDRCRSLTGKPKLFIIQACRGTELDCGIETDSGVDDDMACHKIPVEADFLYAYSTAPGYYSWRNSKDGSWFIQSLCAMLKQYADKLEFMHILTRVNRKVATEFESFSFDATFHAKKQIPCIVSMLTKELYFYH
The test is described as follows: activators of human procaspase-3 D3A mutant – biochemical, absorbance, PC-3 D3A mutant, counter-screen for dual procaspase-3/7 activator project, dose response (AID 504328). (The purpose of a counterscreen is to sort out artefacts and off-target activity.)

For the next test, the target named is Caspase-7 (Homo sapiens, UniProt P55210). The test is described as follows: potency of procaspase-7 enzyme activation – biochemical, absorbance, human, dual procaspase-3/-7 activator project, dose response (AID 504330).

Molecules are shown by their SMILES. The source made the active and inactive calls.

Sequence of Bcl-2-like protein 10 (Q9HD36 whole entry): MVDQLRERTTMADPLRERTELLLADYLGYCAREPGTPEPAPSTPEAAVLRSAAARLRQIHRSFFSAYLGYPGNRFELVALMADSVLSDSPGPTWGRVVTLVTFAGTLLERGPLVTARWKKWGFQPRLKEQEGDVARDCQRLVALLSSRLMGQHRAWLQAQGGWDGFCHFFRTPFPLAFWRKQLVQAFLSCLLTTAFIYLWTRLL
Sequence of Intestinal-type alkaline phosphatase (P09923 whole entry): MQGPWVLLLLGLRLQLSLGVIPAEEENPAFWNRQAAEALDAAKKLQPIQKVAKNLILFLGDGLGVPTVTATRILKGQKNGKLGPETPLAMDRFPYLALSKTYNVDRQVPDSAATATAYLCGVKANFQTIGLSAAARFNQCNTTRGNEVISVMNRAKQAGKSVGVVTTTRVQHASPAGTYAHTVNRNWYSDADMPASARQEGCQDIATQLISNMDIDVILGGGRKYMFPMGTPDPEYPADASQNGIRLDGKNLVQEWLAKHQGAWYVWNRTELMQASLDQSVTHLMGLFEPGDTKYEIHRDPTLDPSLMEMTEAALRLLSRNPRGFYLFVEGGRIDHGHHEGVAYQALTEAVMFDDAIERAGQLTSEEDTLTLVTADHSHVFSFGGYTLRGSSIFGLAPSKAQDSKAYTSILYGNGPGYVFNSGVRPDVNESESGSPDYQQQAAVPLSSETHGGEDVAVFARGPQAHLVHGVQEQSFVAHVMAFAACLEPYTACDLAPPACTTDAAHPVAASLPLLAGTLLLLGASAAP

For the compound `Cc1c(CN(C)C)c2c(n1Cc1ccccc1)C(=O)c1ccc(Br)cc1-2`, the IC50 in “cells” is 10.6 µM (active); on Bcl-2-like protein 10, > 50 µM (inactive). The CC50 was > 20 µM (active) in test [1], 10.5 µM (active) in test [2], 15.3 µM (active) in test [3] and 22 µM (active) in test [4].
With `COC(=O)Cn1cc(/C=C2\C(=O)NC(=O)N(c3ccccc3)C2=O)c2ccccc21`, the figures for the EC50 in test [5] and in test [6] were 7.64 µM (active) and > 300 µM (inconclusive), respectively. Further, in [7], the IC50 was > 100 µM (inactive).
On to `COc1cccc(NC(=O)c2ccnc(N3CCC(C(=O)NCc4cc(OC)ccc4OC)CC3)c2)c1`, for which the EC50 at Caspase-3 and on Caspase-7 was > 85.3 µM (inactive) in each case.
